Reference: patent US4036984A, “Soil fungi inhibiting agent” (Nissan Chemical Industries, Ltd., priority 1974, dated 1977)

Columns and labels:
[1] = tested on: Fusarium oxysporum f. cucumerinum; assay: Fungicidal test by agar dilution method (colony diameter); format: cell-based; details: for diameter of the colony: 4 days, 25° C., PSA medium; for growth / inhibition of colony compared with the control: 250-1000 ppm
Method: Reference -- Fungicidal Test by Agar Dilution Method
100 mg of the invented compound was taken in a 30 ml conical flask, to which a drop of 1:1 mixture of Solpol 2680 (surface-active agent produced by Toho Kagaku) and xylene (about 25 mg), and 1 ml of acetone were added to dissolve therein. On the other hand, 9 ml of sterilized water separately was further added to emulsify, thereby yielding an emulsion of 10,000 ppm concentration. From this emulsion an emulsion of 5,000 ppm and one of 2,500 ppm were prepared through two times dilution.
In a 100 ml conical flask, 3 ml portion each of these emulsions was taken; 27 ml of potato-sucrose-agar (PSA) medium, at 50°-60° C. was added and uniformly blended. Ten ml of the obtained mixture was poured and hardened on a 10 cm-diameter petri dish.
Meanwhile, a colony of Fusarium oxysporum f. cucumerinum separately cultivated on potato-sucrose-agar (PSA) medium was stamped out by a 4mm-diameter cork-borer and inoculated on the above-mentioned mixed medium. After 4 days of cultivation in a chamber of 25° C., the diameter of the colony was measured, the results being summarized in Table 2. A case of the colony not having grown is indicated by the sign (-).

[2] = tested on: Fusarium oxysporum f. cucumerinum; assay: Test 1: control of Fusarium wilt of cucumber (powder, pot test); format: in vivo; details: soil treatment 500 mg (5% powder) and additional irrigation 500 ppm, fourth week of transplanting
Method: Test of effect of fungicide on control of Fusarium wilt of cucumber (in case of using powder) Fusarium oxysporum f. cucumerinum which had been cultivated for 1 month at 25° C. on soil-bran medium was air-dried overnight and sifted through a 3mm-mesh sieve. 10g of said culture soil was blended with 600g of sterilized diluvial soil. To 200g of this blended soil were added 1200g of sterilized diluvial soil (containing 2.65 weight % of compost) and 1000mg or 500mg of 5% powder of the invented compound; and these were uniformly mixed in a vat. Next, 1500g of sterilized diluvial soil (containing compost) was placed in a wagner pot of 1/5000 are over which was spread the soil prepared above. Cucumber seedlings of one-leaf stage (variety: "Shimoshirazujibai") which had been cultivated separately in styrol cups in a greenhouse were transplanted into said wagner pot. Each of said cucumber seedlings was singly planted in 200g of the soil placed in said styrol cup and three days before its transplanting, 20 ml of an emulsion of each compound in 300 ppm concentration was irrigated over the soil. In the case of a pot whose soil had been treated with 1000 mg of the compound (5% powder), 14 days after transplanting, 50 ml of an emulsion of the compound in 1000 ppm concentration was additionally irrigated (Test I) and in the case of a pot whose soil had been treated with 500mg of the compound (5% powder), 50 ml of an emulsion of the compound in 500 ppm concentration was additionally irrigated (Test II). The pots were all kept in a greenhouse, and the test was carried out on lots each containing three pots, each pot holding four seedlings.
Every 2 days the withered seedlings were counted and in the fourth week of transplanting, the browning degree of vascular in each seedling was measured; and the effectiveness rating was determined as follows; [formula] (Note)* Fusarium lot is a treated lot containing only Fusarium oxysporum f. cucumerinum.
Sick score is obtained as follows:
Sick score = 3 × a + 2 × b + 1 × c + 0.5 × d + 0 […]
a -- number of withered seedlings b -- number of seedlings in which the browning of vascular has reached the cotyledon part c -- number of seedlings in which the browning of vascular is short of the cotyledon part d -- number of seedlings in which only brown spots have been recognized e -- number of perfectly sound seedlings a + b + c + d + e = 12

[3] = tested on: Fusarium oxysporum f. cucumerinum; assay: Test 6: control of Fusarium wilt of cucumber by spraying stalks and leaves; format: in vivo; details: stalks and leaves sprayed with 2000 ppm, third week of transplanting
Method: Test of effect of fungicide on control of Fusarium wilt of cucumber, by spraying stalks and leaves with compound.
Fusarium oxysporum f. cucumerinum which had been cultivated for 1 month at 25° C. on soil-bran medium was air-dried overnight and then sifted through a 3mm-mesh sieve.
Next, 1500 g of sterilized diluvial soil (containing compost) was placed in a Wagner pot of 1/5000a, over which the soil prepared above was spread. Cucumber seedlings of one-leaf stage (variety: "Shimoshiraznjibai") which had been separately grown in styrol cups in a greenhouse were transplanted into said Wagner pot. Each of said cucumber seedlings was singly grown in a styrol cup with 200 g of soil. Seven days before it was transplanted, it was sprayed with a 2000 ppm solution of each compound until the stalks and leaves were completely wet.
Just after transplanting and at the end of each week after transplanting, the seedling was sprinkled until completely wet with a 2000 ppm solution of the compound. All the pots were kept in the greenhouse. The test was carried out on lots of three pots each with each pot holding four seedlings.
In the third week of transplanting all the seedlings were checked for the browning of vascular and in the same way as in Test 1.

[4] = tested on: Fusarium oxysporum f. cucumerinum; assay: Test 2: control of Fusarium wilt of cucumber (emulsion, pot test); format: in vivo; details: emulsion irrigated 300 ppm, then 1000 ppm twice, third week of transplanting
Method: Test of effect of fungicide on control of Fusarium wilt of cucumber (in case of using emulsion).
Fusarium oxysporum f. cucumerinum which had been cultivated for 1 month at 25° C. on soil-bran medium was air-dried overnight and then sifted through a 3 mm-mesh sieve. 15g of said culture soil and 600g of sterilized diluvial soil were blended together.
Next, 1500g of sterilized diluvial soil (containing compost) was placed in a Wagner pot of 1/5000 are, over which the soil prepared above was spread. Cucumber seedlings of one-leaf stage (variety: "Shimoshirazujibai") which had been separately cultivated in styrol cups in a greenhouse were transplanted into said Wagner pot. Each of said cucumber seedlings was singly grown in a styrol cup with 200g of soil. Seven days before it was transplanted, 20 ml of an emulsion of each compound in 300 ppm was irrigated over the soil. Just after transplanting and two weeks after transplanting 50 ml of an emulsion of the compound in 1000 ppm was additionally irrigated. All pots were kept in the greenhouse, the test being carried out on lots each containing three pots and each pot holding four seedlings.
In the third week of transplanting all the seedlings were checked for the browning degree of vascular and in the same way as in Test 1, the effectiveness rating and the sick score were determined.

[5] = tested on: Fusarium oxysporum f. cucumerinum; assay: Fungicidal test by agar dilution method (colony diameter); format: cell-based; details: 2.5, 5 and 10 ppm
[6] = in vivo; cited from earlier work
rats = details: cited from earlier work
[7] = tested on: pests like fleas, mosquitoes etc.; details: cited from earlier work
genus Bacillus = details: 2000 ppm; cited from earlier work
Escherichia coli = details: 2000 ppm; cited from earlier work
[8] = tested on: Micrococcus pyogenes var. aureus; details: 2000 ppm; cited from earlier work

Structure (SMILES)	diameter of the colony ([1]; 250 ppm) [mm]	diameter of the colony ([1]; 500 ppm) [mm]	diameter of the colony ([1]; 1000 ppm) [mm]	also measured
CCCCC(=O)OCCOc1ccccc1 [Compound No. 6]	31	26	22	–
CCCCCCCC(=O)OCCOc1ccccc1 [compound 11]	36	32	29	–
CCCCCC(=O)OCCOc1ccccc1 [compound 9]	33	30	22	–
CC(CC(=O)OCCOc1ccccc1)CC(C)(C)C (stereo not shown) [compound 14]	38	38	35	–
O=COCCOc1ccccc1 [Compound No. 1]	40	30	10	–
CCCC(=O)OCCOc1ccccc1 [Compound No. 4]	32	27	22	Effectiveness Rating II [2]: 30
CCC(C)C(=O)OCCOc1ccccc1 (stereo not shown) [Compound No. 7]	25	23	16	–
CCCCCCC(=O)OCCOc1ccccc1 [compound 10]	33	28	24	–
C=CC(=O)OCCOc1ccccc1 [Compound No. 23, β-phenoxyethylacrylate]	–	–	–	Effectiveness Rating, 2000 ppm [3]: 30
CSCC(=O)OCCOc1ccccc1 [Compound No. 67, β-phenoxyethyl S-methylglycolate]	–	–	–	Effectiveness Rating [4]: 89
CC(C)=CC(=O)OCCSc1ccccc1 [compound 74]	–	–	–	Effectiveness Rating, 2000 ppm [3]: 62
CC(C)(O)CC(=O)OCCOc1ccccc1 [compound 37]	–	–	–	Effectiveness Rating, 2000 ppm [3]: 40
CCCCNC(=O)n1c(NC(=O)OC)nc2ccccc21 [Benomyl, methyl-1-(butylcarbamonyl)-2-benzimidazolcarbamate, reference compound]	–	–	–	Effectiveness Rating II [2]: 44; growth of the colony [5]: no growth of the colony was evident
CC(C)C(=O)C(=O)OCCOc1ccccc1 [Compound No. 45, β-phenoxyethyl 2-oxo-3-methyl-butanoate]	–	–	–	Effectiveness Rating, 2000 ppm [3]: 76
CCC(=O)OCCOc1ccccc1 [Compound No. 3]	25	20	9	Effectiveness Rating II [2]: 32
CCCCCCCCCCCC(=O)OCCOc1ccccc1 [compound 13]	49	45	40	growth / inhibition of colony compared with the control [1]: same growth as the control
CCCCCCCCCC(=O)OCCOc1ccccc1 [compound 12]	46	41	38	growth / inhibition of colony compared with the control [1]: same growth as the control
CC(C)(C)C(=O)OCCOc1ccccc1 [compound 15]	19	17	13	–
CC(=O)OCCOc1ccccc1 [Compound No. 2]	37	26	–	Effectiveness Rating II [2]: 80; skin cancer [6]: not likely to cause skin cancer; LD50, acute oral toxicity (rats): 4900 mg/kg; repellency [7]: feebly repellant; Effectiveness Rating, 2000 ppm [3]: 67
CC(C)CC(=O)OCCOc1ccccc1 [Compound No. 8]	24	19	15	Effectiveness Rating II [2]: 50
CC(C)C(=O)OCCOc1ccccc1 [Compound No. 5]	30	23	17	bactericidal effect (genus Bacillus): non-bactericidal; bactericidal effect (Escherichia coli): non-bactericidal; bactericidal effect [8]: non-bactericidal
